Key:
[1] = target: T1, hERG potassium channel (Kv 11.1) (Homo sapiens, UniProt Q12809); assay: Radioligand binding assay, hERG potassium channel; conditions: antagonist 1 μM, read-out: Mean% inhibition (N = 2) of radioligand binding
T1 construct: Eurofins Scientific, Inc
Protocol: (§1) Binding assays were conducted to evaluate the affinity of test compounds IEM-1460 and IEM-1925 (Eurofins Scientific, Inc.) for 15 targets: the human alpha-1 adrenergic (A1) receptor, histaminergic (H)-2 and−3 receptors, and muscarinic acetylcholine receptors-1 to−5 in transfected CHO cells by radioligand binding. The neuronal α4β2 and neuronal α7 cholinergic acetylcholine receptors were tested in transfected SH-SY5Y cells. The histaminergic-1 and−4 receptors were tested in transfected HEK-293 cells. Ion channel testing for AMPA and N-methyl-D-aspartate (NMDA) was performed in cells from the rat cerebral cortex. […] Non-specific binding was determined in the presence of 1 μM of DCPX. […] The filters were dried and then counted for radioactivity in a scintillation counter (Topcount, Packard) using a scintillation cocktail (Microscint 0, Packard). The results are expressed as a percent inhibition of the control radioligand specific binding: 100-[(measured specific binding)/(control specific binding) × 100]. […]
(§2) We tested the metabolic stability of the compounds with in vitro liver microsome stability assays (Table 1, right). […] We evaluated the compounds for potential toxicity with assays that test for inhibition of off-target ion channels and receptors. […]

NMDA glutamate = assay: Radioligand binding assay, NMDA receptor (rat cerebral cortex); conditions: antagonist 1 μM
Protocol: as §1, §2

[2] = test system: AMPA glutamate (GluA2-containing); assay: Radioligand binding assay, AMPA receptor (rat cerebral cortex); conditions: antagonist 1 μM
Protocol: as §1, §2

H2 histamine GPCR = target: T2, H2 histamine GPCR (Homo sapiens, UniProt P25021); assay: Radioligand binding assay, H2 receptor (transfected CHO cells); conditions: antagonist 1 μM
T2 construct: host or cells: CHO cells
Protocol: as §1, §2

M1 acetylcholine GPCR = target: T3, M1 acetylcholine GPCR (Homo sapiens, UniProt P11229); assay: Radioligand binding assay, M1 receptor (transfected CHO cells); conditions: antagonist 1 μM
T3 construct: host or cells: CHO cells
Protocol: as §1, §2

M3 acetylcholine GPCR = target: T4, M3 acetylcholine GPCR (Homo sapiens, UniProt P20309); assay: Radioligand binding assay, M3 receptor (transfected CHO cells); conditions: antagonist 1 μM
T4 construct: host or cells: CHO cells
Protocol: as §1, §2

nAChR alpha4/beta2 = target: T5, nAChR alpha4/beta2 (Homo sapiens, UniProt P17787+P43681); assay: Radioligand binding assay, neuronal α4β2 nicotinic receptor (transfected SH-SY5Y cells); conditions: antagonist 1 μM
T5 construct: host or cells: SH-SY5Y cells
Protocol: as §1, §2

[3] = In vitro microsomal stability assay, guinea pig; type: in vitro ADME; conditions: pH 7.4; guinea pig liver microsomes, 1 μM compound, 37°C; read-out: Half-life (min) Mean (N = 2)
Protocol: (§3) The stability of IEM-1460 in the presence of guinea pig liver microsomes (BioIVT, PN: X008070) or IEM-1925 in the presence of human (BioIVT, PN: M00101), mouse, or guinea pig liver microsomes was evaluated (Paraza Pharma, Inc., Montreal, Quebec, Canada). Both IEM-1925 and IEM-1460 were incubated with microsomes at 37°C for a total of 45 min. Working solutions were prepared in 100 mM potassium phosphate buffer and the final reaction was performed at pH 7.4 in 100 mM potassium phosphate buffer containing 0.5 mg/mL liver microsomal protein. Phase I metabolism was assessed by adding NADPH to a final concentration of 1 mM and collecting samples at time points 0, 5, 15, 30, and 45 min. All collected samples were quenched 1:1 with ice-cold stop solution (1 μM labetalol and 1 μM glyburide in acetonitrile) and centrifuged to remove precipitated protein. […] Samples were analyzed by LC-MS/MS using a Thermo Vanquish UPLC and a Thermo Quantis triple quadrupole mass spectrometer. […] Reference compounds were also assessed to ensure accuracy and precision of experimental protocol: imipramine and verapamil for human liver microsomes, diphenhydramine and verapamil for mouse liver microsomes, and warfarin and verapamil for guinea pig liver microsomes. […] Half-life was determined from a plot of the natural logarithm of the peak area ratio (remaining compound peak area/internal standard peak area) against time. […]

[4] = In vitro microsomal stability assay, mouse; type: in vitro ADME; conditions: pH 7.4; mouse liver microsomes, 1 μM compound, 37°C; read-out: Half-life (min) Mean (N = 2)
Protocol: as §3

[5] = Metabolic stability in vitro as summarised in the abstract (species not given); type: in vitro ADME; conditions: mouse, guinea pig, human, liver microsomes, pH 7.4
Protocol: The stability of IEM-1460 in the presence of guinea pig liver microsomes (BioIVT, PN: X008070) or IEM-1925 in the presence of human (BioIVT, PN: M00101), mouse, or guinea pig liver microsomes was evaluated (Paraza Pharma, Inc., Montreal, Quebec, Canada). Both IEM-1925 and IEM-1460 were incubated with microsomes at 37°C for a total of 45 min. Working solutions were prepared in 100 mM potassium phosphate buffer and the final reaction was performed at pH 7.4 in 100 mM potassium phosphate buffer containing 0.5 mg/mL liver microsomal protein. Phase I metabolism was assessed by adding NADPH to a final concentration of 1 mM and collecting samples at time points 0, 5, 15, 30, and 45 min. All collected samples were quenched 1:1 with ice-cold stop solution (1 μM labetalol and 1 μM glyburide in acetonitrile) and centrifuged to remove precipitated protein. […] Samples were analyzed by LC-MS/MS using a Thermo Vanquish UPLC and a Thermo Quantis triple quadrupole mass spectrometer. […] Reference compounds were also assessed to ensure accuracy and precision of experimental protocol: imipramine and verapamil for human liver microsomes, diphenhydramine and verapamil for mouse liver microsomes, and warfarin and verapamil for guinea pig liver microsomes. […] Half-life was determined from a plot of the natural logarithm of the peak area ratio (remaining compound peak area/internal standard peak area) against time.

[6] = test system: non-pyramidal cells (expressing mainly GluA2-lacking CP-AMPARs); set-up: method as in Tikhonov et al., 2000; conditions: 2000, cited from earlier work; for IC50: rat hippocampus ref Tikhonov et al.; for apparent selectivity for CP- over CI-AMPARs: ref Tikhonov et al.
[7] = test system: pyramidal cells (expressing mainly GluA2-containing CI-AMPARs); set-up: method as in Tikhonov et al., 2000; conditions: rat hippocampus ref Tikhonov et al., 2000; cited from earlier work

T1 sequence (Q12809 whole entry): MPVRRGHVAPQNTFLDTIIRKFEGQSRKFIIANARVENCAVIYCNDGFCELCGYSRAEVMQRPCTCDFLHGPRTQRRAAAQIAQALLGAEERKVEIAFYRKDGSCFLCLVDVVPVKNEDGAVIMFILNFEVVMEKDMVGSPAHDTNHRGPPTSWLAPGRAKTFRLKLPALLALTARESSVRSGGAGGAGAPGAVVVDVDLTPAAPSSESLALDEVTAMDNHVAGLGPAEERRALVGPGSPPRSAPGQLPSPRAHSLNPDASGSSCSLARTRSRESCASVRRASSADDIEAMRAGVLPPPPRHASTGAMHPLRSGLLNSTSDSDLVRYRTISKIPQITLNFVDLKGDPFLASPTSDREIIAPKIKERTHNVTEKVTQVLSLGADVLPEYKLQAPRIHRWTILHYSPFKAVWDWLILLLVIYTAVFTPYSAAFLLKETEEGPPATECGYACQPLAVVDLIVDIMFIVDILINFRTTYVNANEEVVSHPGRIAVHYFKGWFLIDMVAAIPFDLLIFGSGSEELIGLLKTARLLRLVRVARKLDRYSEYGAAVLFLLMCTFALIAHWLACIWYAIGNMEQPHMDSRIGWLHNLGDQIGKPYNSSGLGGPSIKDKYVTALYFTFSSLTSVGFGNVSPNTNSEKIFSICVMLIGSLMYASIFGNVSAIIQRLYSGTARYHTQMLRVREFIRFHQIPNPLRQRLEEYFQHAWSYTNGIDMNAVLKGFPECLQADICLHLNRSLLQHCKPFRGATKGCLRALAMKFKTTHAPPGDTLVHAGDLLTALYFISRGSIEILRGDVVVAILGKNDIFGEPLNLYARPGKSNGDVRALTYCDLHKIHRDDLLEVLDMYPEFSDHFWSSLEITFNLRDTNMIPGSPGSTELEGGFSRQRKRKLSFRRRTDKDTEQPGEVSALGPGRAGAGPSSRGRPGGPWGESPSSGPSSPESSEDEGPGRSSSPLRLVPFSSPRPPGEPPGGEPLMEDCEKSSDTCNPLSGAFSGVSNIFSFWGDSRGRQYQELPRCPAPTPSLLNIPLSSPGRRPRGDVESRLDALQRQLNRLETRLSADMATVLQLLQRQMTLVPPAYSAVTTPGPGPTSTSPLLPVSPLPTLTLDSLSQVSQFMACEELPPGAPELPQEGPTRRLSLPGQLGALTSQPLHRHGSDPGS
T4 sequence (P20309 whole entry): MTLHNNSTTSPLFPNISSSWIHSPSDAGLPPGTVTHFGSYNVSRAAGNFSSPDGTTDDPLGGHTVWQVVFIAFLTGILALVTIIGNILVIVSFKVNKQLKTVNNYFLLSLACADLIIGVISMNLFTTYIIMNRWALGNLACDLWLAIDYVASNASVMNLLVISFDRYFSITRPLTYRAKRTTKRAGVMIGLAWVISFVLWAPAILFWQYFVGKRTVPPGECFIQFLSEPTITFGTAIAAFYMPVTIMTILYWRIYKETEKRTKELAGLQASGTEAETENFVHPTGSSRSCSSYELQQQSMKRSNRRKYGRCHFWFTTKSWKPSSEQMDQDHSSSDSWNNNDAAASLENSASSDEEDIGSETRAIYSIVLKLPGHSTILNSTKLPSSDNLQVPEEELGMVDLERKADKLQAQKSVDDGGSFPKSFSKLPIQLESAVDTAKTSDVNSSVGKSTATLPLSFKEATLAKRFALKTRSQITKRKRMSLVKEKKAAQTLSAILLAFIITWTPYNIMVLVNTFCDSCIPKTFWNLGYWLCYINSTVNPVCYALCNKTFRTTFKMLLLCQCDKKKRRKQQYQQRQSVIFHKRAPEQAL
T5 sequence (P43681 29-627 limits assumed): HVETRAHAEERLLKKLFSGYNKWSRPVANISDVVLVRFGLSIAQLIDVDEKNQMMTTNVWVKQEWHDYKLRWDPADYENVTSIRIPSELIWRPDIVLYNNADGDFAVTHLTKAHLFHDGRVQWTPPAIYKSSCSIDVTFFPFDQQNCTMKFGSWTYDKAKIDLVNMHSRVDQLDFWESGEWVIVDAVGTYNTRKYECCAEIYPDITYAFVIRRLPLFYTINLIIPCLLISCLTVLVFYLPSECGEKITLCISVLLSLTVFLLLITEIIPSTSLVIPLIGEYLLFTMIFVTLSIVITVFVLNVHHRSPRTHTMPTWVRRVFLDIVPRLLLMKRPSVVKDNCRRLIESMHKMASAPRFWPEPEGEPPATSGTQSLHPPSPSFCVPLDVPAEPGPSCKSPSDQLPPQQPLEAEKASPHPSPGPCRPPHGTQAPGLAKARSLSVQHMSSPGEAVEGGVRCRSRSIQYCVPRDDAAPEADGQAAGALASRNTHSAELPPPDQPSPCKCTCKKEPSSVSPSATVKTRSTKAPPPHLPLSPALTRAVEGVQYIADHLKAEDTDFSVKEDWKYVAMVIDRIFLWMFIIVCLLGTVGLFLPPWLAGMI
T5 sequence (P17787 26-502): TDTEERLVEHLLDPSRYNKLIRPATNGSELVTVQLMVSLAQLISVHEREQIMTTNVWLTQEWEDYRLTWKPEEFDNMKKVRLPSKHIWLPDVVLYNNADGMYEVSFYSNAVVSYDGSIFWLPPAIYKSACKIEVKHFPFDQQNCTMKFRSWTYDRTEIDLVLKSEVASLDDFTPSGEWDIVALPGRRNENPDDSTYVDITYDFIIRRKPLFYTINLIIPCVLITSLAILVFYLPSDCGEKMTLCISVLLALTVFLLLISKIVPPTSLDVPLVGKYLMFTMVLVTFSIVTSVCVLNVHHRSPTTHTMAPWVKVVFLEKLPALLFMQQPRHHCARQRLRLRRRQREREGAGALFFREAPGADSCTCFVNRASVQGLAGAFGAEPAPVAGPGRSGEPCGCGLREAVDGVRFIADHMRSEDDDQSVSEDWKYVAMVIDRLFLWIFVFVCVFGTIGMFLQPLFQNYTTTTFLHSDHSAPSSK
T2 sequence (P25021 whole entry): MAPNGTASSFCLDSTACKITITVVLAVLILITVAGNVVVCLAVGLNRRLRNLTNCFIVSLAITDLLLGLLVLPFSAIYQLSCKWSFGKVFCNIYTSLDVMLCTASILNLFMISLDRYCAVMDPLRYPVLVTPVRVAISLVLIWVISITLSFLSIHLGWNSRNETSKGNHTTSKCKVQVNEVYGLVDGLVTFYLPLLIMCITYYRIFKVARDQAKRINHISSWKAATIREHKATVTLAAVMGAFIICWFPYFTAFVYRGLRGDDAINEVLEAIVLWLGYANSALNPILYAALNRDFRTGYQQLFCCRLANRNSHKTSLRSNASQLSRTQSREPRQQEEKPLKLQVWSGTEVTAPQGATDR
T3 sequence (P11229 whole entry): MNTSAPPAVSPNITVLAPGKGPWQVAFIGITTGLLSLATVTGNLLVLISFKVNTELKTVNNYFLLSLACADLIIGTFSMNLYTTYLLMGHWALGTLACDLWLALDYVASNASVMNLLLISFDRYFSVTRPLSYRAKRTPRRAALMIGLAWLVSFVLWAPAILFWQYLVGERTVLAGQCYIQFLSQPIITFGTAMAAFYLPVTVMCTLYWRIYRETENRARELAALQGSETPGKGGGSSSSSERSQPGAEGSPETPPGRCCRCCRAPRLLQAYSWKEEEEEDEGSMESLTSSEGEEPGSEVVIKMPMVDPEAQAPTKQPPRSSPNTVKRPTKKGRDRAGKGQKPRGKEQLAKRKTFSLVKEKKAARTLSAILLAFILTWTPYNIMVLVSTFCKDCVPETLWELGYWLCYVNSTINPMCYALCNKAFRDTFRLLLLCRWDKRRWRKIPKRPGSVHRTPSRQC

SMILES	inhibition at 1 μM [1] [%]	Mean% inhibition (N = 2) of radioligand binding (NMDA glutamate) [%]	Mean% inhibition (N = 2) of radioligand binding [2] [%]	Mean% inhibition (N = 2) of radioligand binding (H2 histamine GPCR) [%]	Mean% inhibition (N = 2) of radioligand binding (M1 acetylcholine GPCR) [%]	Mean% inhibition (N = 2) of radioligand binding (M3 acetylcholine GPCR) [%]	Mean% inhibition (N = 2) of radioligand binding (nAChR alpha4/beta2) [%]	half-life at 1 μM [3] [min]	half-life at 1 μM [4] [min]	half-life [5] [h]	IC50 [6] [µM]	apparent selectivity for CP- over CI-AMPARs [6]	IC50 [7] [µM]
C[N+](C)(C)CCCCCNCC12CC3CC(CC(C3)C1)C2 [IEM-1460]	< 5	<1	<1	<1	<1	15	<1	> 300	> 300	> 5	~3	~ 300 fold	> 500
NCCCCCNC1(c2ccccc2)CCCCC1 [IEM-1925]	< 1	<1	9.5	<1	<1	<5	<1	> 300	> 300	> 5	~1	~ 300 fold	> 200
